Assay results reported in ChEMBL document CHEMBL1146842, “Design, synthesis, and biological evaluations of novel quinolones as HIV-1 non-nucleoside reverse transcriptase inhibitors” (Bioorg Med Chem Lett, 2006).

Columns and labels:
HEK293 = experiment: Cytotoxicity against HEK293T cells; format: functional; conditions: Homo sapiens
[1] = system: Human immunodeficiency virus 1; experiment: Antiviral activity against HIV1; format: functional, organism-based
[2] = system: Human immunodeficiency virus 1; experiment: Antiviral activity against HIV1 V106A mutant; format: functional, organism-based
[3] = system: Human immunodeficiency virus 1; experiment: Antiviral activity against HIV1 L100I mutant; format: functional, organism-based
[4] = system: Human immunodeficiency virus 1; experiment: Antiviral activity against HIV1 Y188L mutant; format: functional, organism-based
[5] = system: Human immunodeficiency virus 1; experiment: Antiviral activity against HIV1 Y181C mutant; format: functional, organism-based
[6] = system: Human immunodeficiency virus 1; experiment: Antiviral activity against HIV1 K103N mutant; format: functional, organism-based
[7] = system: Human immunodeficiency virus 1; experiment: Antiviral activity against HIV1 E138K mutant; format: functional, organism-based
[8] = system: Human immunodeficiency virus 1; experiment: Antiviral activity against HIV1 I135V mutant; format: functional, organism-based
[9] = system: Human immunodeficiency virus 1; experiment: Antiviral activity against HIV1 Y181H mutant; format: functional, organism-based
[10] = system: Human immunodeficiency virus 1; experiment: Antiviral activity against HIV1 Y181S mutant; format: functional, organism-based
[11] = system: Human immunodeficiency virus 1; experiment: Antiviral activity against HIV1 F227L mutant; format: functional, organism-based
[12] = system: Human immunodeficiency virus 1; experiment: Antiviral activity against HIV1 V179E mutant; format: functional, organism-based

## CCCCC12CC1(C#N)C(=O)Nc1ccc(Cl)cc12 (centres undefined)
HEK293
  CC50: > 10 µM
[1]
  EC50: 197 nM

## CCOC(=O)C12CC1(C1CCCCC1)c1cc(Cl)ccc1NC2=O (centres undefined)
HEK293
  CC50: > 10 µM
[1]
  EC50: > 10000 nM

## CCCCC12CC1(COCC)C(=O)Nc1ccc(Cl)cc12 (centres undefined)
[2]
  EC50: 1120 nM
[3]
  EC50: 39 nM
[4]
  EC50: > 10 µM
[5]
  EC50: 6.24 µM
[6]
  EC50: 3960 nM
[7]
  EC50: 94 nM
[8]
  EC50: 74 nM
HEK293
  CC50: > 10 µM
[9]
  EC50: 216 nM
[10]
  EC50: 4180 nM
[11]
  EC50: 251 nM
[1]
  EC50: 65 nM
[12]
  EC50: 1030 nM

## CCCCC12CC1(C(=O)Nc1ccccc1C#N)C(=O)Nc1ccc(Cl)cc12 (centres undefined)
HEK293
  CC50: 6.09 µM
[1]
  EC50: 1710 nM

## CCCCC12CC1(C(=O)NC(C)C)C(=O)Nc1ccc(Cl)cc12 (centres undefined)
HEK293
  CC50: > 10 µM
[1]
  EC50: 2780 nM

## C=CCCCC12CC1(C(=O)OCC)C(=O)Nc1ccc(Cl)cc12 (centres undefined)
[2]
  EC50: 260 nM
[3]
  EC50: 35 nM
[4]
  EC50: > 10 µM
[5]
  EC50: > 10 µM
[6]
  EC50: 1250 nM
[7]
  EC50: 57 nM
[8]
  EC50: 33 nM
HEK293
  CC50: > 10 µM
[9]
  EC50: 89 nM
[10]
  EC50: 1680 nM
[11]
  EC50: 9 nM
[1]
  EC50: 1 nM
[12]
  EC50: 304 nM

## CCOC(=O)C12CC1(CCc1ccccc1)c1cc(Cl)ccc1NC2=O (centres undefined)
HEK293
  CC50: > 10 µM
[1]
  EC50: 221 nM

## O=C1Nc2ccc(Cl)cc2C(C#CC2CC2)(C(F)(F)F)O1 (single isomer, unassigned) [EFAVIRENZ]
[2]
  EC50: 4 nM
[4]
  EC50: 0.28 µM
[7]
  EC50: 2 nM
[8]
  EC50: 1 nM
HEK293
  CC50: > 10 µM
[9]
  EC50: 2 nM
[10]
  EC50: 1 nM
[11]
  EC50: 1 nM
[12]
  EC50: 6 nM

## CCCCC12CC1(C(=O)Oc1ccc(C#N)cc1)C(=O)Nc1ccc(Cl)cc12 (centres undefined)
HEK293
  CC50: > 10 µM
[1]
  EC50: 1100 nM

## CCCCC12CC1(C(=O)OCCC#N)C(=O)Nc1ccc(Cl)cc12 (centres undefined)
HEK293
  CC50: > 10 µM
[1]
  EC50: 113 nM

## CCCCC12CC1(C(=O)CCC)C(=O)Nc1ccc(Cl)cc12 (centres undefined)
HEK293
  CC50: > 10 µM
[1]
  EC50: 265 nM

## CCCCC12CC1(C(=O)N1CCCC1)C(=O)Nc1ccc(Cl)cc12 (centres undefined)
HEK293
  CC50: > 10 µM
[1]
  EC50: > 10000 nM

## CCCCC12CC1(CO)C(=O)Nc1ccc(Cl)cc12 (centres undefined)
HEK293
  CC50: > 10 µM
[1]
  EC50: 743 nM

## CCOC(=O)C12CC1(C(C)C)c1cc(Cl)ccc1NC2=O (centres undefined)
HEK293
  CC50: > 10 µM
[1]
  EC50: > 10000 nM

## CCCCC12CC1(C(=O)Nc1cccc(C#N)c1)C(=O)Nc1ccc(Cl)cc12 (centres undefined)
HEK293
  CC50: > 10 µM
[1]
  EC50: 160 nM

## CCCCC12CC1(C(=O)NCCC(=O)O)C(=O)Nc1ccc(Cl)cc12 (centres undefined)
HEK293
  CC50: > 10 µM
[1]
  EC50: > 10000 nM

## CCCCC12CC1(C(=O)OC)C(=O)Nc1ccc(Cl)cc12 (centres undefined)
[2]
  EC50: 57 nM
[3]
  EC50: 4 nM
[4]
  EC50: 7.34 µM
[5]
  EC50: 0.727 µM
[6]
  EC50: 682 nM
[7]
  EC50: 8 nM
[8]
  EC50: 12 nM
HEK293
  CC50: > 10 µM
[9]
  EC50: 8 nM
[10]
  EC50: 581 nM
[11]
  EC50: > 10000 nM
[1]
  EC50: 1 nM
[12]
  EC50: 244 nM

## CCCCC12CC1(C(=O)NCC)C(=O)Nc1ccc(Cl)cc12 (centres undefined)
HEK293
  CC50: > 10 µM
[1]
  EC50: 747 nM

## CCCCc1c(C(=O)OCC)c(O)nc2ccc(Cl)cc12
HEK293
  CC50: > 10 µM
[1]
  EC50: 166 nM

## CCCCC12CCC1(C(=O)OCC)C(=O)Nc1ccc(Cl)cc12 (centres undefined)
HEK293
  CC50: > 10 µM
[1]
  EC50: 102 nM

## C=CCOC(=O)C12CC1(CCCC)c1cc(Cl)ccc1NC2=O (centres undefined)
[2]
  EC50: 1220 nM
[3]
  EC50: 1 nM
[4]
  EC50: > 10 µM
[5]
  EC50: 2.94 µM
[6]
  EC50: 1080 nM
[7]
  EC50: 32 nM
[8]
  EC50: 23 nM
HEK293
  CC50: > 10 µM
[9]
  EC50: 20 nM
[10]
  EC50: 932 nM
[11]
  EC50: 1 nM
[1]
  EC50: 1 nM
[12]
  EC50: 233 nM

## C=CCNC(=O)C12CC1(CCCC)c1cc(Cl)ccc1NC2=O (centres undefined)
HEK293
  CC50: > 10 µM
[1]
  EC50: 489 nM

## CCCCC12CC1(C(=O)Nc1ccncc1)C(=O)Nc1ccc(Cl)cc12 (centres undefined)
HEK293
  CC50: > 10 µM
[1]
  EC50: 8260 nM

## CCCCC12CC1(C(=O)Oc1ccccc1)C(=O)Nc1ccc(Cl)cc12 (centres undefined)
HEK293
  CC50: > 10 µM
[1]
  EC50: > 10000 nM

## CCCCC12CC1(COC(C)=O)C(=O)Nc1ccc(Cl)cc12 (centres undefined)
[2]
  EC50: 4720 nM
[3]
  EC50: 45 nM
[4]
  EC50: > 10 µM
[5]
  EC50: 7.46 µM
[6]
  EC50: 2620 nM
[7]
  EC50: 54 nM
[8]
  EC50: 64 nM
HEK293
  CC50: > 10 µM
[9]
  EC50: 59 nM
[10]
  EC50: 2350 nM
[11]
  EC50: 1 nM
[1]
  EC50: 37 nM
[12]
  EC50: 735 nM

## CCOC(=O)C12CC1(Cc1ccccc1)c1cc(Cl)ccc1NC2=O (centres undefined)
HEK293
  CC50: > 10 µM
[1]
  EC50: > 10000 nM
